Reference: ChEMBL document CHEMBL3882247, “Use of dibenzofuranone derivatives to inhibit kinases” (2013)
Calls of active or inactive are those of the source. The rule behind the calls is not given here.

Columns and labels:
[1] = target: T1, Casein kinase II (Homo sapiens) (UniProt P67870+P68400+P19784); assay: Inhibition of CK2 in human LNCAP cell lysates after 24 to 48 hrs in presence of [gamma-32P]ATP by radiometric analysis; type: cell-based
LNCaP [2] = assay: Cytotoxicity against human LNCAP cells assessed as decrease in cell viability after 24 to 72 hrs by MTT assay; type: functional, cell-based
Casein kinase 2 = Casein kinase 2 (Rattus norvegicus, UniProt P19139); assay: Inhibition of rat liver CK2 using RRRADDSDDDDD as substrate after 10 mins in presence of [gamma-33P]-ATP
Casein kinase 2, sequence (P67874 whole entry): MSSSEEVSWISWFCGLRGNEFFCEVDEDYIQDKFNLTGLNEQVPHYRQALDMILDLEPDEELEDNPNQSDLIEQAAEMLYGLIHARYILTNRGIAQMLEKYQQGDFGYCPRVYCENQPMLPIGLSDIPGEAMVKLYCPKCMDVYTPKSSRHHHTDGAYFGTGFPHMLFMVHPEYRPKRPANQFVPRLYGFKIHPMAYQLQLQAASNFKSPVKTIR
Casein kinase 2, sequence (P19139 whole entry): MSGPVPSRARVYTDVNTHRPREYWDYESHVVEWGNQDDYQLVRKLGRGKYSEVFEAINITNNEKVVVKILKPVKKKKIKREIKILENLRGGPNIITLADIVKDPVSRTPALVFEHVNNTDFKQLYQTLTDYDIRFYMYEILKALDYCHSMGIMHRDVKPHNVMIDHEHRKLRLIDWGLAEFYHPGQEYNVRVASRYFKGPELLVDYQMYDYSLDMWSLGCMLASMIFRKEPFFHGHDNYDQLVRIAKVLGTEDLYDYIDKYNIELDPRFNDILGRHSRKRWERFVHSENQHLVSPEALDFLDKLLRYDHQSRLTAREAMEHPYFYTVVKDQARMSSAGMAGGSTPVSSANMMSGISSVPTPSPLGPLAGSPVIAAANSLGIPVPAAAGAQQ

[3] = target: T1, Casein kinase II (Homo sapiens); assay: Inhibition of CK2 (unknown origin) assessed as residual activity using E-peptide as substrate at 10 uM incubated for 10 mins prior to testing by capillary electrophoretic analysis; type: protein-complex assay
LNCaP [4] = assay: Cytotoxicity against human LNCAP cells assessed as cell viability at 50 uM after 48 hrs by MTT assay; type: functional
LNCaP [5] = assay: Cytotoxicity against human LNCAP cells assessed as cell viability at 25 uM after 48 hrs by MTT assay; type: functional
LNCaP [6] = assay: Cytotoxicity against human LNCAP cells assessed as cell viability at 25 uM after 24 hrs by MTT assay; type: functional
LNCaP [7] = assay: Cytotoxicity against human LNCAP cells assessed as cell viability at 50 uM after 24 hrs by MTT assay; type: functional
LNCaP [8] = assay: Induction of apoptosis in human LNCAP cells assessed as PARP cleavage at 25 to 50 uM after 24 to 48 hrs by Western blot analysis; type: functional, cell-based
LNCaP [9] = assay: Cytotoxicity against human LNCAP cells assessed as cell viability at 50 uM after 72 hrs by MTT assay; type: functional
LNCaP [10] = assay: Induction of apoptosis in human LNCAP cells assessed as PARP cleavage after 24 to 48 hrs by Western blot analysis; type: functional, cell-based

In the case of `COc1ccc(N/C=C2\C(=O)CCc3c2oc2cc(Cl)c(O)c(Cl)c32)cc1`, the inhibition [1] is reported as “Active” and the Activity (LNCaP [2]) is reported as “Dose-dependent effect”.

For `O=c1oc2c(O)c(O)cc3c(=O)oc4c(O)c(O)cc1c4c23` [ELLAGIC ACID], the IC50 (Casein kinase 2) was 40 nM.

In the case of `COc1ccc(/N=C/c2c(O)ccc3c2oc2cc(Cl)c(O)c(Cl)c23)cc1`, the inhibition [1] is reported as “Active” and the Activity (LNCaP [2]) is reported as “Dose-dependent effect”.

Molecule `CC(C)=CC(=O)c1oc2c(Cl)c(Cl)c(O)c(C#N)c2c1N` has an Activity [3] of less than 4%.

`CC(=O)Oc1c(Cl)c(Cl)c2oc(C(=O)C=C(C)C)c(N)c2c1C#N` gave an Activity [3] of 7%.

With `Brc1c(Br)c(Br)c2[nH]nnc2c1Br` the Activity (LNCaP [4]) was “Active”, the Activity (LNCaP [5]) was “Active” and the Activity (LNCaP [6]) was “Active”. The Activity (LNCaP [7]) was “Active”, the Activity (LNCaP [8]) was “Active” and the Activity (LNCaP [9]) was “Active”. For the same molecule, the Activity (LNCaP [2]) was “Dose-dependent effect”.

With `Cc1ccc(N/C=C2\C(=O)CCc3c2oc2c(Cl)c(Cl)c(O)cc32)cc1` the Activity [3] was less than 4%, the Activity (LNCaP [10]) was “Dose-dependent effect” and the Activity (LNCaP [2]) was “Dose-dependent effect”.

`CCOC(=O)c1oc2c(Cl)c(Cl)c(OC(C)=O)c(C#N)c2c1N` was tested, and the Activity [3] was 31%.
